US20250346643A1, “TROPOMYOSIN KINASE RECEPTOR (TRK) LIGANDS AS THERAPEUTICS TO SUPPORT LIVER REGENERATION” (Vanderbilt University, priority 2024, published 2025)

Tests used:
[1] = test system: primary mouse hepatocytes; assay: Cell proliferation assay (CellTiter-Glo) in primary mouse hepatocytes; type: cell-based
Procedure: Primary hepatocyte isolation. Pdgfrb-GFP-negative or H-2Kd mice older than 4 months were anesthetized and cannulated via the portal vein. Livers were perfused with about 25 ml of pre-warmed Liver Perfusion Medium (Gibco, Waltham, MA; 17707-038) followed by about 50 ml Liver Digestion Medium (Gibco, Waltham, MA; 17703-034). Liver capsule was gently teased apart with tweezers and hepatocytes released. Cells were taken up in Hepatocyte Wash Buffer (Gibco, Waltham, MA; 17704-024) and filtered through 100 μm mesh. Cells were then centrifuged for 2 min at 100 g, 4° C. and cell pellet resuspended in ice cold 10 ml DMEM (Gibco, Waltham, MA; 11885-084)/5% FBS. 10 ml of ice cold 100% Percoll®/PBS (GE HealthCare, Chicago, IL; GE17-0891-01) was added for gradient purification and cells centrifuged for 10 min at 200 g, 4° C. Cell pellet was resuspended with 20 ml DMEM/5% FBS and centrifuged for 2 min at 100 g, 4° C. 1-2×10^3 hepatocytes were plated on collagen-coated 96-well plates in DMEM/5% FBS/Pen/Strep. Rat tail collagen I (Gibco, Waltham, MA; A1048301) was used for coating. Cell culture media was changed 3 hours after plating with either serum-free William's E media (Gibco, Waltham, MA) containing Pen/Strep (Gibco, Waltham, MA) or DMEM/5% FBS/Pen/Strep. NTF3 (STEMCELL technologies, Vancouver, Canada) was added 1 day after plating at a final concentration of 20 ng/ml and primary hepatocytes cultured for 3 days with NTF3 until analysis.
Cell proliferation assays. Primary mouse hepatocytes, HepG2 or AML 12 cells were grown in opaque-walled 96-well plates. NTF3 (final concentration 20 ng/ml) (STEMCELL Technologies, Vancouver, Canada; cat. 78074) and/or Loxo-195 (final concentration 5 nM) (Selleckchem, Houston, TX; S8636) were added into complete growth media without L-glutamine. Primary mouse hepatocytes were also grown in serum-free William's E media without supplements. Cells were analyzed by CellTiter-Glo® (Promega G7570, Madison, WI) which detects the number of viable cells on day 0 to day 5 by on detection systems GloMax® (Promega) or Bioteck Synergy H1 (Agilent, Santa Clara, CA). Mouse recombinant HGF (Abcam, Cambridge, UK; ab281797) was added to cell culture media at a final concentration 5 ng/ml. TRKB inhibitor ANA-12 (Selleckchem, Houston, TX; S7745) was diluted in DMSO (10 mM stock solution) and added to cell culture media at a final concentration of 10 nM.
Primary mouse hepatocyte isolation. Mice were anesthetized and cannulated via the portal vein. Livers were perfused with ˜25 ml of prewarmed liver perfusion medium (Gibco, Waltham, MA; 17707-038) followed by ˜50 ml of liver digestion medium (Gibco, Waltham, MA; 17703-034). The liver capsule was gently teased apart with tweezers, and hepatocytes were released. Cells were taken up in Hepatocyte Wash Buffer (Gibco, Waltham, MA; 17704-024) and filtered through a 100-μm mesh. Cells were then centrifuged for 2 min at 100 g, 4° C., and the cell pellet was resuspended in 10 ml of ice-cold DMEM (Gibco, Waltham, MA; 11885-084)/5% FBS. […] of ice-cold 100% Percoll®/PBS (GE HealthCare, Chicago, IL; GE17-0891-01) were added for gradient purification, and cells were centrifuged for 10 min at 200 g, 4° C. The cell pellet was resuspended with 20 ml of DMEM/5% FBS and centrifuged for 2 min at 100 g, 4° C. A total of 1×10^3 to 2×10^3 hepatocytes were plated on collagen-coated 96-well plates in DMEM/5% FBS/Pen/Strep. Rat tail collagen I (Gibco, Waltham, MA; A1048301) was used for coating. Cell culture media were changed 3 hours after plating with either serum-free William's E media (Gibco, Waltham, MA) containing Pen/Strep (Gibco, Waltham, MA) or DMEM/5% FBS/Pen/Strep. […]

[2] = test system: hepatocytic differentiated human ductal organoids; assay: EdU incorporation in hepatocytic differentiated human ductal organoids (HDO); type: cell-based; settings: co-incubation with taletrectinib 10 nM (FIG. 19C-D)
Procedure: (§1) Human ductal organoids. The normal human liver tissue was obtained through the Cooperative Human Tissue Network (CHTN) at Vanderbilt University Medical Center. The liver was cut into very small pieces in liver digestion medium (Gibco, Waltham, MA; 17703-034). The cell suspension was filtered through a 100-μm cell strainer. The flow through was then centrifuged for 2 min at 100 g, 4° C., and the cell pellet resuspended in ice-cold DMEM (Gibco, Waltham, MA; 11885-084, supplemented by 5% FBS) and centrifuged for 2 min at 300 g. The cell pellet was gently resuspended in Matrigel® (Corning, Corning, NY; 356231) and a […] dome plated in a 24-well plate. The plate was incubated for 10-15 min at 37° C. After solidifying, complete HepatiCult™ Organoid Initiation Medium (OIM) (STEMCELL Technologies, Vancouver, Canada; 100-0384) was added. For passaging, the Matrigel dome was dissociated using TrypLE (Thermo Fisher Scientific, Waltham, MA; 12604013) and incubated at 37° C. for 5 mins. Organoids were washed by resuspending in advanced DMEM/F12 and consecutive resuspension of the organoid pellet. Organoids were resuspended at a 1:10 dilution in Matrigel® and cultured in complete HepatiCult™ Organoid Growth Medium (OGM) (STEMCELL Technologies, Vancouver, Canada; 100-0385) for organoid expansion. For hepatocytic differentiation of hepatic ductal organoids, culture medium was changed to complete HepatiCult™ Organoid Differentiation Medium (ODM) (STEMCELL Technologies, 100-0383) 4 days after passaging. Vehicle, NTF3, BDNF, HGF (20 ng/ml final concentration) or Taletrectinib (Fisher Scientific, Waltham, MA; 502030245, final concentration 10 nM) or torin2 (Fisher Scientific, Waltham, MA; s2817, final concentration 25 nM) were diluted in William's E (without L-glutamine) and added to organoids.
EdU incorporation and imaging in HDO and mpPHH. A chamber slide was pre-chilled on ice and coated with Matrigel®. Chamber slide was then incubated for 3 min at 37° C. to solidify and organoids plated in 0.02% Matrigel®/complete media into coated chamber slides. Organoids were grown in complete organoid growth media (OGM) for approximately 4 days followed by incubation in organoid differentiation media (ODM) for another 4 days. Organoids were changed to William's E medium 1 day prior to experiment. Vehicle or NTF3, BDNF, HGF (20 ng/ml final concentration each) or Taletrectinib (Fisher Scientific, Waltham, MA; 502030245, final concentration 10 nM) were diluted in William's E (without L-glutamine) and added to organoids. CLICK-iT™ EdU (EdU final concentration […] incubated together with the vehicle, NTF3, BDNF or HGF). After 6 hours, organoids were fixed with 4% paraformaldehyde and permeabilized with 0.5% Triton-X 100. Further processing was performed according to CLICK-ITT EdU manufacturer's instructions. mpPHHs were seeded on collagen coated chamber slides and grown in complete hepatocyte medium (Lonza, Basel, Switzerland). Prior to EdU incorporation assays, mpPHHs were cultured in William's E medium. Vehicle or NTF3, BDNF, HGF (20 ng/ml final concentration each) or Taletrectinib (Fisher Scientific, Waltham, MA; 502030245, final concentration 10 nM) were diluted in William's E (without L-glutamine) and added to mpPHHs. Organoids were imaged in PBS in chamber slides, mpHHs were mounted with fluoromount. Five to fifteen images of random high-power fields were obtained per experiment per treatment and EdU+/Hoechst 33342+ nuclei versus all Hoechst 33342+ nuclei quantified.

mTORC1 = assay: Immunoblotting of HDOs for P-S6RP and P-P70S6K (mTORC1 activation); type: cell-based, human
Procedure: as §1
Immunoblotting. HDOs and mpPHH were homogenized in RIPA buffer containing proteinase inhibitors (Roche, Basel, Switzerland; cOmplete™ Mini protease inhibitor, 2 tab/10 ml buffer) and 1×HALT phosphatase inhibitors (Thermo Fisher Scientific, Waltham, MA; catalog no. 78428). Lysates were sonicated and then centrifuged for 10 min at 18,800 g. Protein concentration of supernatants was determined by Direct Detect Spectrophotometer (MilliporeSigma, Burlington, MA). HDOs were treated with growth factors as described above. Lyophilized NTF3 was solubilized with sterile-filtered PBS supplemented with 0.1% BSA, aliquoted, and stored at −80° C. until use. […] HDOs and mpPHH were collected on ice in PBS and centrifuged for 10 s, and the cell pellet was homogenized in RIPA buffer containing inhibitors (Roche, Basel, Switzerland; cOmplete™ Mini protease inhibitor, 1×HALT phosphatase inhibitors, Thermo Fisher Scientific, Waltham, MA; catalog no. 78428). Cell lysates were sonicated and centrifuged for 10 min at 18,800 g. The protein concentration of supernatants was determined by a Direct Detect® spectrophotometer (MilliporeSigma, Burlington, MA). For immunoblot analysis, 10 to 50 μg of protein diluted in […] sample buffer (Invitrogen, Waltham, MA) were analyzed per SDS-polyacrylamide gel electrophoresis (NuPAGE™, Invitrogen, Waltham, MA) using Mops buffer or MES buffer (Invitrogen, Waltham, MA). […] Semi-quantitative band densitometry was performed using ImageJ software (version 1.53).

CC(=O)NCCc1c[nH]c2ccc(O)cc12 [NAS, N-Acetyl-5-hydroxytryptamine, reference compound]
cell proliferation, comparison of NTF3, HGF, BDNF and NAS ([1]; BDNF and HGF 20 ng/ml, NAS 500 nM (FIG. 16E)): induce proliferation to a similar extent

O=C(Nc1ccccc1C(=O)NC1CCCCNC1=O)c1cc2ccccc2s1 (stereo not drawn) [ANA-12, reference compound]
inhibition of NTF3-induced cell proliferation ([1]; ANA-12 10 nM, NTF3 20 ng/ml, serum-free medium (FIG. 12D)): significantly inhibited | effect on BDNF-induced proliferation ([1]; co-incubation with ANA-12 10 nM (FIG. 16C)): inhibited

C[C@@H](N)COc1ccc(-c2cnc3ccc(N[C@H](C)c4cccc(F)c4)nn23)cc1 [taletrectinib, reference compound]
effect on NTF3-induced increase of EdU+ cells [2]: decreased

NC(=O)CC[C@H](N)C(=O)O [glutamine]
phosphorylated S6rp (Ser240/244) (mTORC1; HDOs cultured in glutamine free media, coincubation (FIG. 18G), Torin2 25 nM): decreased phosphorylated S6rp

insulin: a known activator of mTORC1
phosphorylation of P-p70S6 kinase and P-S6 ribosomal protein (S6RP) (mTORC1; HDO, serum free and glutamine free William's E medium (FIG. 20A-C)): significantly increased phosphorylation
